{"source": "paper PMC12162873", "about": "“Modulating phosphatase DUSP22 with BML-260 ameliorates skeletal muscle wasting via Akt independent JNK-FOXO3a repression” (EMBO Molecular Medicine, 2025)", "key": {"C2C12 murine myotubes": {"test_system": "C2C12 murine myotubes", "assay": "Dex-induced C2C12 myotube atrophy: myotube diameter, fusion and differentiation indexes", "assay_type": "cell-based, mouse", "details": "10 μM Dex 24 h, 12.5 μM BML-260", "experimental": "(§1) C2C12 murine skeletal muscle myoblasts were purchased from Koram Biotech Corp. (Seoul, Republic of Korea). Prior to experiments, mycoplasma contamination was eliminated using the MycoXpert Mycoplasma Removal Reagent (MYX-B, CAPRICORN) following the manufacturer’s protocol. To ensure complete removal, all cells were passaged three times after treatment before being used in subsequent experiments. No STR profiling was recently undertaken. Myoblasts were cultured in growth media (GM), containing Dulbecco’s modified Eagle’s medium (DMEM), 10% fetal bovine serum, and 1% penicillin and streptomycin (PenStrep). C2C12 myoblasts were differentiated into myotubes at more than 80% confluence by culture in differentiation media (DM), containing DMEM supplemented with 2% horse serum and PenStrep, for 96 h. To induce atrophy, the myotubes were treated with DM plus 10 μM Dex for 24 h. BML-260 and SP600125 were purchased from Santa Cruz Biotechnology, TX, USA (cat. no. sc-223822 and sc-200635).\nFast myosin heavy chain 2 (MYH2) immunocytochemistry was used to visualize murine myotubes and measure myotube diameter, following the previously published protocol (Chen et al, [2016]). After mounting, fluorescence images were captured in 5 different regions using a DMI 3000 B microscope (Leica, Germany), and analyzed using the NIH imaging software Image J 64. 100 myotubes containing at least three nuclei were measured in each experimental group. Myotubes were primarily examined in the central area of each well, as opposed to randomly selected fields. The mid-point of the myotube was used to measure the diameter. For nuclear counts, we chose myotubes containing three or more nuclei. The observer was aware of the treatment conditions.\nTo assess myoblast fusion into multinucleate myotubes, nuclei number within fast myosin (MYH2)-positive cells were measured using the NIH imaging software Image J 64. The differentiation index was calculated as the percentage of nuclei in fast myosin (MYH2)-positive cells (nuclei in myotubes/total nuclei). Myotubes were classified as MYH-positive cells containing at least 4 nuclei. Myotubes were measured in groups of at least 100, with at least 7500 nuclei measured in each group.\n(§2) Gene knockdown was carried out following the manufacturer’s protocol using a 6-well culture plate format (Thermo Fischer Scientific, Waltham, USA). Lipofectamine 3000 was used for the transfection step (Thermo Fischer Scientific, Waltham, USA). siRNA transfection was performed on day 3 of myoblast differentiation into myotubes. C2C12 myotubes and primary human myotubes were transfected with 75 pmol siRNA duplex. Details of the siRNAs used in this study are shown in Appendix Table S3."}, "C2C12 myotubes": {"test_system": "C2C12 myotubes", "assay": "Real-time qPCR of gene expression in C2C12 myotubes", "assay_type": "cell-based, mouse", "details": "for atrogin-1 and MuRF-1 expression, qPCR: 10 μM Dex 24 h, 12.5 μM BML-260; for DUSP22 expression, qPCR, Average / MURF-1 expression, qPCR, Average / atrogin-1 (ATRO) expression, qPCR, Average: Vehicle average = 1, n = 5; for DUSP22 expression, qPCR / MURF-1 expression, qPCR / atrogin-1 (ATRO) expression, qPCR: Vehicle average = 1, replicates", "experimental": "as §1\nThe StepOnePlus Real Time PCR System (Applied Biosystems, UK) was used to measure the mRNA level of the genes of interest. An AccuPower RT PreMix (Bioneer, Republic of Korea) was used to synthesize the cDNA from total RNA. The real-time PCR (qPCR) was carried out according to the manufacturer’s instructions, and the previously published protocol (Lee et al, [2020]). Details of the primers used in this study are shown in Appendix Tables S1 and S2.\nas §2"}, "C57BL/6J mice": {"test_system": "C57BL/6J mice", "assay": "Dex treatment mouse model of skeletal muscle atrophy, BML-260 treatment", "assay_type": "in vivo", "details": "for mean body weight: 15 mg/kg Dex, 5 mg/kg BML-260, IP daily", "experimental": "The Dex model of muscle atrophy was based on the previously published protocol (Kim et al, [2022]). In brief, 12-week-old male C57BL/6J mice were treated as follows: 1) Vehicle (DMSO in PBS pH 7.4 with 5% Tween 80) alone, 2) 15 mg/kg Dex dissolved in vehicle, 3) 15 mg/kg Dex and 5 mg/kg BML-260 (n = 5 per group). Mice were treated daily by intraperitoneal (IP) injection for 14 d and then assessed for muscle condition. The 5 mg/kg in vivo dose was selected based on a previous study that carried out bilateral injection of BML-260 into the fat pads of male 8-week-old C57BL/6J mice (Feng et al, [2019]).\nGrip strength was measured using the BIO-GS3 device (Bioseb, FL, USA). Mice were placed onto the grid with all four paws attached and gently pulled backwards to measure the grip strength until the grid was released. The maximum grip value, used to represent muscle force, was calculated using 3 trials with an interval of 30 s.\nMuscle fatigue was measured the previously described protocol (Chiu et al, [2018]), with two different models using the Rotarod. One was the constant model and the other was the accelerating model that is inherent in the rotarod device. In brief, the mice were accommodated to training before the commencement of the fatigue task using an accelerating rotarod (Ugo Basile, Italy). The mice were trained at a constant speed of 13 rpm for 15 min. After a recovery period of 15 min, the mice were placed on the rotarod adjusted to accelerate from 13 to 25 rpm in 3 min for 15 min. 24 h later, the muscle fatigue test was carried out with speeds ramping from 13 to 25 rpm in 3 min, and maintained at 25 rpm for a 30 min interval. Latency to fall off the rotarod was measured for each mouse. A fatigued mouse was classified as falling off 4 times within a 1 min period, which also terminated the test.\nMice were anesthetized using ketamine (22 mg/kg; Yuhan, Republic of Korea) and xylazine (10 mg/kg; Bayer, Republic of Korea) in saline by IP injection. The quadriceps, gastrocnemius, soleus and TA muscles were then dissected and weighed. For histological analysis, the muscles were fixed by overnight incubation with 4% paraformaldehyde in PBS pH 7.4 at 4 °C. Paraffin sectioning and H&E staining were provided by the Animal Housing Facility, Gwangju Institute of Science and Technology, Republic of Korea (5 µm muscle sections using a Thermo Scientific HistoStar (Thermofisher). H&E staining was carried out with a kit (Merck, Germany)). For immunohistochemistry, TA muscle sections were permeabilized for 15 min (PBS with 0.5% Triton X-100), blocked for 1 h (5% BSA) and incubated with the primary antibody overnight at 4 °C (a list of primary and secondary antibodies used in this study are provided in Appendix Tables S4 and S5, respectively). After washing with PBS 3 times for 5 min, the sections were incubated with the secondary antibody at RT for 1 h. The nuclei were counterstained with DAPI in ProLong™ Gold Antifade Mountant (Invitrogen, P36935). Digital images were acquired with Leica DM 2500 (Leica Microsystems). Cross sectional area (CSA) and fiber size distribution was measured using the NIH imaging software Image J 64. To CSA and size distribution of different fiber types was calculated in 4 muscle section as follows: type 2 A: 30–40 fibers measured; type 2B: at least 100 fibers measured; type 2X: 30–40 fibers measured."}, "[1]": {"details": "C2C12 myotubes treated with Dex"}, "[2]": {"details": "dexamethasone-treated C2C12 myotubes"}, "[3]": {"details": "dexamethasone-treated C2C12 myotubes, listed as BML"}, "[4]": {"details": "15 mg/kg Dex and 5 mg/kg BML-260, IP daily 14 d"}}, "note": "“And” between values parts separate entries of the source, which are not always exact repeats. Equal values may be shown once."}
{"molecule": "C[C@@H]1C[C@H]2[C@@H]3CCC4=CC(=O)C=C[C@]4(C)[C@@]3(F)[C@@H](O)C[C@]2(C)[C@@]1(O)C(=O)CO", "note": "[Dex, dexamethasone]", "values": [{"measurement": "myotube atrophy (myotube diameter)", "setting": "C2C12 murine myotubes", "value": "underwent atrophy"}, {"measurement": "atrogin-1 and MuRF-1 expression, qPCR", "setting": "C2C12 myotubes", "value": "upregulated"}, {"measurement": "DUSP22 expression in myotubes undergoing Dex-induced atrophy, RNA Seq and qPCR", "setting": "C2C12 myotubes; C2C12 myotubes", "value": "upregulated"}, {"measurement": "DUSP22 expression, qPCR, Average", "setting": "C2C12 myotubes; [1]", "value": 1.867}, {"measurement": "DUSP22 expression, qPCR", "setting": "C2C12 myotubes; [1]", "value": "1.751 and 1.762 and 2.076 and 2.045 and 1.699"}, {"measurement": "DUSP22 expression, qPCR, Average", "setting": "C2C12 myotubes; [2]", "value": 1.628}, {"measurement": "MURF-1 expression, qPCR, Average", "setting": "C2C12 myotubes; [2]", "value": 2.64}, {"measurement": "atrogin-1 (ATRO) expression, qPCR, Average", "setting": "C2C12 myotubes; [2]", "value": 4.291}, {"measurement": "DUSP22 expression, qPCR", "setting": "C2C12 myotubes; [2]", "value": "2.068 and 1.836 and 1.276 and 1.511 and 1.449"}, {"measurement": "MURF-1 expression, qPCR", "setting": "C2C12 myotubes; [2]", "value": "3.398 and 2.859 and 1.96 and 2.287 and 2.697"}, {"measurement": "atrogin-1 (ATRO) expression, qPCR", "setting": "C2C12 myotubes; [2]", "value": "4.546 and 3.961 and 4.048 and 4.199 and 4.699"}, {"measurement": "mean body weight", "setting": "C57BL/6J mice", "value": "significantly reduced"}, {"measurement": "DUSP22 expression, qPCR", "setting": "C57BL/6J mice; TA muscle of C57BL/6 mice treated with Dex, Vehicle average = 1, individual animals", "value": "2.47 and 1.789 and 1.328 and 1.032"}]}
{"molecule": "O=C(O)c1ccc(N2C(=O)C(=Cc3ccccc3)SC2=S)cc1", "note": "(stereo in doubt) [BML-260]", "values": [{"measurement": "myotube atrophy (myotube diameter)", "setting": "C2C12 murine myotubes", "value": "prevented myotube atrophy"}, {"measurement": "myotube fusion and differentiation indexes", "setting": "C2C12 murine myotubes", "value": "recovered"}, {"measurement": "proportion of larger-sized myotubes", "setting": "C2C12 murine myotubes", "value": "maintained the proportion of larger-sized myotubes"}, {"measurement": "atrogin-1 and MuRF-1 expression, qPCR", "setting": "C2C12 myotubes", "value": "downregulated"}, {"measurement": "additional effect on Dex-induced atrogene expression in the presence of DUSP22 gene knockdown", "setting": "C2C12 myotubes; Dex-treated C2C12 myotubes", "value": "no significant additional effect"}, {"measurement": "DUSP22 expression, qPCR, Average", "setting": "C2C12 myotubes; [2]", "value": 1.419}, {"measurement": "MURF-1 expression, qPCR, Average", "setting": "C2C12 myotubes; [2]", "value": 2.125}, {"measurement": "atrogin-1 (ATRO) expression, qPCR, Average", "setting": "C2C12 myotubes; [2]", "value": 2.99}, {"measurement": "DUSP22 expression, qPCR", "setting": "C2C12 myotubes; [3]", "value": "1.3832 and 1.906 and 1.483 and 1.176 and 1.145"}, {"measurement": "MURF-1 expression, qPCR", "setting": "C2C12 myotubes; [3]", "value": "2.278 and 2.851 and 2.228 and 1.487 and 1.782"}, {"measurement": "atrogin-1 (ATRO) expression, qPCR", "setting": "C2C12 myotubes; [3]", "value": "3.37 and 3.403 and 3.232 and 2.06 and 2.886"}, {"measurement": "TA muscle mass", "setting": "C57BL/6J mice; [4]", "value": "increased"}, {"measurement": "grip strength", "setting": "C57BL/6J mice; [4]", "value": "increased the mean grip strength value, but it did not achieve statistical significance"}, {"measurement": "myofiber area distribution", "setting": "C57BL/6J mice; [4]", "value": "shifted the myofiber area distribution towards larger sized fibers"}, {"measurement": "rotarod muscle performance, acceleration and constant models", "setting": "C57BL/6J mice; [4]", "value": "significantly recovered muscle performance"}, {"measurement": "upregulation of atrogin-1, MuRF-1 and DUSP22 in TA muscle, western blot", "setting": "C57BL/6J mice; [4]", "value": "inhibited"}, {"measurement": "myofiber CSA", "setting": "C57BL/6J mice; 15 mg/kg Dex and 5 mg/kg BML-260, IP daily 14 d, TA muscle per text", "value": "significantly increased"}, {"measurement": "mean body weight", "setting": "C57BL/6J mice", "value": "recovered"}]}
